Test results: patent publication US11884682B2, “Compounds and their uses as MIF inhibitors” (NANJING IMMUNOPHAGE BIOTECH CO., LTD., priority 2020, dated 2024)

Each compound was assayed against MIF (Homo sapiens (Human), UniProt P14174) (assay: MIF tautomerase assay using pHPP as substrate). Settings: cell-free, pHPP substrate 1.5 mM, MIF 3 nM; mean pIC50 of multiple test results.
Type: biochemical
Experimental: Tautomerase Assay Using pHPP as substrate
This assay measured MIF's tautomerase activity in a cell-free system and was based on the determination of initial rates of the MIF-catalyzed conversion of the ketonic into the enolic tautomer of pHPP. This was achieved by spectrophotometric quantification of the complex between borate and the product of the reaction (enolic pHPP). The substrate was prepared by conversion of the enolic pHPP into its ketonic form. To achieve this, 0.5 M pHPP in methanol was diluted 10-fold with 50 mM sodium acetate buffer at pH 6.0, and then the suspension was shaken for 24 h at room temperature in darkness, and finally stored at 4° C. for not more than 1 week, with 5 min sonication being recommended before use.
Assays were performed in small-volume clear-bottom black 96 or 384-well polystyrene plates (Greiner Bio-One). First, 2 μL of the enzyme solution containing 6 nM of MIF in DPBS, 0.025% w/v BSA, and 300 μM CHAPS was dispensed onto sample and negative control wells using Multidrop Combi with metallic tip cassettes (Thermo Fisher Scientific) previously treated with Sigmacote. Then, 2 μL of the same buffer without MIF was dispensed onto positive control wells. The reaction was started by addition of the following to all wells: 2 μL of substrate solution containing 3 mM ketonic pHPP in 200 mM boric acid, 25 mM sodium phosphate, 0.025% w/v BSA, and 300 μM CHAPS at pH 6.0. In order to remove bubbles, the plate was centrifuged in an Allegra 25R centrifuge (Beckman Coulter, Inc., Brea, CA) at 1000 rpm for 2 min at room temperature. Then, the plate was read in an EnVision. Final concentrations of enzyme and substrate were 3 nM and 1.5 mM, respectively. Initial rates were calculated for each well as the slope of the absorbance progress curve.
The data mentioned below represents a mean pIC50 value of multiple test results. It is understood that the data illustrated below may have reasonable variation depending on the specific conditions and procedures used by the person conducting the testing.

Sequence of MIF (P14174 2-115): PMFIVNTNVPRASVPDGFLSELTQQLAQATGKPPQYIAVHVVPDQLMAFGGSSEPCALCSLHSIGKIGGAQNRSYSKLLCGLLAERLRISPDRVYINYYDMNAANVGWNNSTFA

Structure (SMILES) | Tautomerase Inhibition pIC50
COc1ccc(C(=O)Nc2nnc(-c3ccco3)o2)c(Cl)c1 [Compound 1, 2-chloro-N-(5-(furan-2-yl)-1,3,4-oxadiazol-2-yl)-4-methoxybenzamide] | <5
COc1ccc(C(=O)Nc2nnc(-c3ccccc3)o2)c(OC)c1 [Compound 2, 2,4-dimethoxy-N-(5-phenyl-1,3,4-oxadiazol-2-yl)benzamide] | 5.07
O=C(Nc1nnc(-c2ccco2)o1)[C@H]1CCN(Cc2ccccc2)C1 [Compound 3, (S)-1-benzyl-N-(5-(furan-2-yl)-1,3,4-oxadiazol-2-yl)pyrrolidine-3-carboxamide] | <5
COc1ccc(C(=O)Nc2nnc(-c3ccc(O)cc3)o2)c(OC)c1 [Compound 4, N-(5-(4-hydroxyphenyl)-1,3,4-oxadiazol-2-yl)-2,4-dimethoxybenzamide] | 5.58
COc1ccc(C(=O)Nc2nnc(-c3ccsc3)o2)c(OC)c1 [Compound 5, 2,4-dimethoxy-N-(5-(thiophen-3-yl)-1,3,4-oxadiazol-2-yl)benzamide] | 7.73
COc1ccc(C(=O)Nc2nnc(-c3sccc3C)o2)c(OC)c1 [Compound 7, 2,4-dimethoxy-N-(5-(3-methylthiophen-2-yl)-1,3,4-oxadiazol-2-yl)benzamide] | <5
COc1ccc(C(=O)Nc2nnc(-c3sccc3F)o2)c(OC)c1 [Compound 8, N-(5-(3-fluorothiophen-2-yl)-1,3,4-oxadiazol-2-yl)-2,4-dimethoxybenzamide] | 6.54
CCOc1ccccc1C(=O)Nc1nnc(-c2cccs2)o1 [Compound 10, 2-ethoxy-N-(5-(thiophen-2-yl)-1,3,4-oxadiazol-2-yl)benzamide] | 5.90
COC(=O)c1ccccc1C(=O)Nc1nnc(-c2cccs2)o1 [Compound 12, methyl 2-((5-(thiophen-2-yl)-1,3,4-oxadiazol-2-yl)carbamoyl)benzoate] | <5
O=C(Cc1ccccc1)Nc1nnc(-c2cccs2)o1 [Compound 13, 2-phenyl-N-(5-(thiophen-2-yl)-1,3,4-oxadiazol-2-yl)acetamide] | <5
COc1ccc(C(=O)Nc2ccc(-c3ccco3)nn2)c(OC)c1 [Compound 14, N-(6-(furan-2-yl)pyridazin-3-yl)-2,4-dimethoxybenzamide] | 5.91
COc1cc(O)ccc1C(=O)Nc1nnc(-c2cccs2)o1 [Compound 16, 4-hydroxy-2-methoxy-N-(5-(thiophen-2-yl)-1,3,4-oxadiazol-2-yl)benzamide] | 7.09
COc1cc(OCCOCc2ccccc2)ccc1C(=O)Nc1nnc(-c2cccs2)o1 [Compound 18, 4-(2-(benzyloxy)ethoxy)-2-methoxy-N-(5-(thiophen-2-yl)-1,3,4-oxadiazol-2-yl)benzamide] | 7.63
COc1cc(CCCC#N)ccc1C(=O)Nc1nnc(-c2cccs2)o1 [Compound 25, 4-(3-cyanopropyl)-2-methoxy-N-(5-(thiophen-2-yl)-1,3,4-oxadiazol-2-yl)benzamide] | 7.68
COc1cc(CCCc2nn[nH]n2)ccc1C(=O)Nc1nnc(-c2cccs2)o1 [Compound 26, 4-(3-(2H-tetrazol-5-yl)propyl)-2-methoxy-N-(5-(thiophen-2-yl)-1,3,4-oxadiazol-2-yl)benzamide] | 7.95
COc1cc(C2=CCC(C(=O)O)CC2)ccc1C(=O)Nc1nnc(-c2cccs2)o1 (stereo not drawn) [Compound 29, 3′-methoxy-4′-((5-(thiophen-2-yl)-1,3,4-oxadiazol-2-yl)carbamoyl)-2,3,4,5-tetrahydro-[1,1′-biphenyl]-4-carboxylic acid] | 8.14
COc1cc(N2CCCC2C(=O)O)ccc1C(=O)Nc1nnc(-c2cccs2)o1 (stereo not drawn) [Compound 30, (3-methoxy-4-((5-(thiophen-2-yl)-1,3,4-oxadiazol-2-yl)carbamoyl)phenyl)proline] | 7.90

Structure (SMILES) | Tautomerase Inhibition pIC50
COc1cc(N2CCCC(C(=O)O)C2)ccc1C(=O)Nc1nnc(-c2cccs2)o1 (stereo not drawn) [Compound 31, 1-(3-methoxy-4-((5-(thiophen-2-yl)-1,3,4-oxadiazol-2-yl)carbamoyl)phenyl)piperidine-3-carboxylic Acid] | 8.16
COc1cc(N2CC3CC(C2)O3)ccc1C(=O)Nc1nnc(-c2cccs2)o1 [Compound 33, 4-(6-oxa-3-azabicyclo[3.1.1]heptan-3-yl)-2-methoxy-N-(5-(thiophen-2-yl)-1,3,4-oxadiazol-2-yl)benzamide] | 7.29
COc1cc(N2CCOCC2)ccc1S(=O)(=O)Nc1nnc(-c2cncs2)o1 [Compound 35, 2-methoxy-4-morpholino-N-(5-(thiazol-5-yl)-1,3,4-oxadiazol-2-yl)benzenesulfonamide] | <5
COc1cc(N2CCOCC2)ccc1C(=O)N(C)c1nnc(-c2cncs2)o1 [Compound 36, 2-methoxy-N-methyl-4-morpholino-N-(5-(thiazol-5-yl)-1,3,4-oxadiazol-2-yl)benzamide] | <5
COc1cc(N2CCOCC2)ccc1C(=O)Nc1nnc(-c2cccs2)o1 [Compound 37, 2-methoxy-4-morpholino-N-(5-(thiophen-2-yl)-1,3,4-oxadiazol-2-yl)benzamide] | 7.44
O=C(NCc1nnc(-c2cccs2)o1)c1ccccc1OC(F)(F)F [Compound 41, N-((5-(thiophen-2-yl)-1,3,4-oxadiazol-2-yl)methyl)-2-(trifluoromethoxy)benzamide] | 1.77
O=C(NCc1nnc(-c2cccs2)o1)c1ccccc1O [Compound 42, 2-hydroxy-N-((5-(thiophen-2-yl)-1,3,4-oxadiazol-2-yl)methyl)benzamide] | 3.10
O=C(NCc1nnc(-c2cccs2)o1)c1ccccc1Cl [Compound 43, 2-chloro-N-((5-(thiophen-2-yl)-1,3,4-oxadiazol-2-yl)methyl)benzamide] | 5.09
O=C(NCc1nnc(-c2cccs2)o1)c1c(F)cccc1F [Compound 45, 2,6-difluoro-N-((5-(thiophen-2-yl)-1,3,4-oxadiazol-2-yl)methyl)benzamide] | <5
COc1cnccc1C(=O)NCc1nnc(-c2cccs2)o1 [Compound 47, 3-methoxy-N-((5-(thiophen-2-yl)-1,3,4-oxadiazol-2-yl)methyl)isonicotinamide] | <5
COc1ncccc1C(=O)NCc1nnc(-c2cccs2)o1 [Compound 48, 2-methoxy-N-((5-(thiophen-2-yl)-1,3,4-oxadiazol-2-yl)methyl)nicotinamide] | <5
O=C(NCc1nnc(-c2cccs2)o1)C1CCCCC1 [Compound 49, N-((5-(thiophen-2-yl)-1,3,4-oxadiazol-2-yl)methyl)cyclohexanecarboxamide] | <5
CN1CCC(C(=O)NCc2nnc(-c3cccs3)o2)CC1 [Compound 50, 1-methyl-N-((5-(thiophen-2-yl)-1,3,4-oxadiazol-2-yl)methyl)piperidine-4-carboxamide] | <5
CCN(Cc1nnc(-c2cccs2)o1)C(=O)c1ccc(N2CCOCC2)cc1OC [Compound 53, N-ethyl-2-methoxy-4-morpholino-N-((5-(thiophen-2-yl)-1,3,4-oxadiazol-2-yl)methyl)benzamide] | <5
COc1c(C(=O)NCc2nnc(-c3cccs3)o2)cccc1N1CCOCC1 [Compound 54, 2-methoxy-3-morpholino-N-((5-(thiophen-2-yl)-1,3,4-oxadiazol-2-yl)methyl)benzamide] | <5
COc1cc(N2CC(C)OC(C)C2)ccc1C(=O)NCc1nnc(-c2cccs2)o1 (stereo not drawn) [Compound 55, 4-(2,6-dimethylmorpholino)-2-methoxy-N-((5-(thiophen-2-yl)-1,3,4-oxadiazol-2-yl)methyl)benzamide] | 6.22
COc1cc(N2CC3CC(C2)O3)ccc1C(=O)NCc1nnc(-c2cccs2)o1 [Compound 57, 4-(6-oxa-3-azabicyclo[3.1.1]heptan-3-yl)-2-methoxy-N-((5-(thiophen-2-yl)-1,3,4-oxadiazol-2-yl)methyl)benzamide] | 6.29

Same assay, conditions: read-out: Tautomerase Inhibition pIC50 (converted)

Structure (SMILES) | IC50
COc1cc([C@H]2CC[C@@H](C(=O)O)CC2)ccc1C(=O)Nc1nnc(-c2cccs2)o1 [Compound 27, Cis-4-(3-methoxy-4-((5-(thiophen-2-yl)-1,3,4-oxadiazol-2-yl)carbamoyl)phenyl)cyclohexane-1-carboxylic acid] | 18.6 nM
COc1cc([C@H]2CC[C@H](C(=O)O)CC2)ccc1C(=O)Nc1nnc(-c2cccs2)o1 [Compound 28, Trans-4-(3-methoxy-4-((5-(thiophen-2-yl)-1,3,4-oxadiazol-2-yl)carbamoyl)phenyl)cyclohexane-1-carboxylic acid] | 38 nM
